Results on 13 molecules are retold here after patent US10988474B2, “Compounds acting at multiple prostaglandin receptors giving a general anti-inflammatory response” (ALLERGAN, INC., priority 2011, dated 2021).

What all share (assay type): cell-based
In assay [1] the target is T1, human prostanoid EP1 receptor (Homo sapiens, UniProt P34995).
T1 construct: expressed in transfected cells
T1 sequence (P34995 1-402): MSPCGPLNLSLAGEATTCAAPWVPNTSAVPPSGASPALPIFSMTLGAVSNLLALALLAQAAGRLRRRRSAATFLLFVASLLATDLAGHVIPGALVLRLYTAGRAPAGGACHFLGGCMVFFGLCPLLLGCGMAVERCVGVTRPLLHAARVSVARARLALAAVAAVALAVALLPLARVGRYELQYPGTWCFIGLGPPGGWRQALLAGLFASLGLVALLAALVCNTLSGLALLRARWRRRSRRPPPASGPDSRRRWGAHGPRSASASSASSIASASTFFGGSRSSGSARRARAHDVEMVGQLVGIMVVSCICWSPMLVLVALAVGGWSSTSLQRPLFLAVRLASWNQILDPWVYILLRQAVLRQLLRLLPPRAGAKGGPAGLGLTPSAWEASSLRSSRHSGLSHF
In words: FLIPR Ca2+ signaling PG antagonist assay, EP1 stable cell line. The conditions noted are these: HEK-293 EBNA cells, human recombinant EP1, no exogenous G-protein; standard agonist PGE2. The method, boiled down:
(§1)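 Stable HEK-293 EBNA lines (DP1 with chimeric Gqs, EP3 with Gqi, EP1 and FP without exogenous G protein) were Fluo-4AM-loaded and pretreated 4.5 min at 37 °C with compound (0.1–30 μM). Agonist (BW 245C for DP1, PGE2 for EP1/EP3, 17-phenyl-PGF2α for FP) was then added at 10^−11–10^−5 M. Peak Ca2+ fluorescence was taken relative to agonist at 10^−6 M.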

Assay [2] has as its target T2, human prostanoid EP2 receptor (Homo sapiens, UniProt P43116).
T2 construct: expressed in transfected cells
In words: FLIPR Ca2+ signaling PG antagonist assay, EP2 stable cell line. As to conditions: HEK-293 EBNA cells, human recombinant EP2 with chimeric Gqs; standard agonist PGE2. The method, boiled down: (§2)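 HEK-293 EBNA stable lines; EP2 co-expressed with chimeric Gqs, EP1/IP/TP with no exogenous G protein. Fluo-4AM-loaded cells pretreated 4.5 min at 37 °C with compound (0.1–30 μM; TP 0.067–1 μM), then standard agonist (PGE2, cicaprost, U-46619) 10^−11–10^−5 M (TP 10^−12–10^−6 M); peak fluorescence read 3.5 min, nonlinear regression.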

The target in assay [3] is T3, human prostanoid EP3 receptor (Homo sapiens, UniProt P43115).
T3 construct: expressed in transfected cells
T3 sequence (P43115 1-390): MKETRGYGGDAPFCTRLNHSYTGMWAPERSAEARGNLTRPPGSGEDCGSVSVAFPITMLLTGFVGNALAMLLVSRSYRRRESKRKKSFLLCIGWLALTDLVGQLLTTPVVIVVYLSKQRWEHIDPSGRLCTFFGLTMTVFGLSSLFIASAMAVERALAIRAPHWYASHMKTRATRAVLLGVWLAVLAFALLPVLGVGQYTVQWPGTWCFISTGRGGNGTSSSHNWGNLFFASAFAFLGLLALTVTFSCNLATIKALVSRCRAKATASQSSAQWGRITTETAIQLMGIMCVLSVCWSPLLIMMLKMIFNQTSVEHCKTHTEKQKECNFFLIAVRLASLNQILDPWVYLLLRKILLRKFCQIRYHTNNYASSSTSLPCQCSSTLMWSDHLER
In words: FLIPR Ca2+ signaling PG antagonist assay, EP3 stable cell line. As to conditions: HEK-293 EBNA cells, human recombinant EP3 with chimeric Gqi; standard agonist PGE2. The method, boiled down: as §1

The target in assay [4] is T4, human prostanoid EP4 receptor (Homo sapiens, UniProt P35408).
T4 construct: expressed in transfected cells
In words: FLIPR Ca2+ signaling PG antagonist assay, EP4 stable cell line. The conditions noted are these: HEK-293 EBNA cells, human recombinant EP4 with chimeric Gqs; standard agonist PGE2. The procedure, abridged:
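Antagonism at human EP4 was assessed as a Ca^2+ signal in stable HEK-293 EBNA transfectants carrying chimeric Gqs. Dye-loaded cells in HBSS-HEPES at 37° C received test compound, then a 7-point 10-fold PGE2 series. Fluorescence was excited at 470-495 nm and read at 515-575 nm for 3.5 minutes, with each condition run in triplicate and buffer used as the negative control.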

The target in assay [5] is T5, human prostanoid IP receptor (Homo sapiens, UniProt P43119).
T5 construct: expressed in transfected cells
Briefly: FLIPR Ca2+ signaling PG antagonist assay, IP stable cell line. As to conditions: HEK-293 EBNA cells, human recombinant IP, no exogenous G-protein; standard agonist Cicaprost. The method, boiled down:
as §2

T2 sequence (P43116 whole entry): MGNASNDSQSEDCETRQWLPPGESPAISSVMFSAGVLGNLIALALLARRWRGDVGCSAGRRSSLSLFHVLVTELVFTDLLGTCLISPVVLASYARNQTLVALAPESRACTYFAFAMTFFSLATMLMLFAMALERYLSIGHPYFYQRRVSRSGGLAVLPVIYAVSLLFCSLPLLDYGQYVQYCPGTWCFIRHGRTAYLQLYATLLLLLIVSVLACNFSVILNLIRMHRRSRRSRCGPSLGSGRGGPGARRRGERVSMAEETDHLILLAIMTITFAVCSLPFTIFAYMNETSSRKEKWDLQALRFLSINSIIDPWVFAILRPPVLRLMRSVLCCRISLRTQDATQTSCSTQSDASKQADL
T5 sequence (P43119 whole entry): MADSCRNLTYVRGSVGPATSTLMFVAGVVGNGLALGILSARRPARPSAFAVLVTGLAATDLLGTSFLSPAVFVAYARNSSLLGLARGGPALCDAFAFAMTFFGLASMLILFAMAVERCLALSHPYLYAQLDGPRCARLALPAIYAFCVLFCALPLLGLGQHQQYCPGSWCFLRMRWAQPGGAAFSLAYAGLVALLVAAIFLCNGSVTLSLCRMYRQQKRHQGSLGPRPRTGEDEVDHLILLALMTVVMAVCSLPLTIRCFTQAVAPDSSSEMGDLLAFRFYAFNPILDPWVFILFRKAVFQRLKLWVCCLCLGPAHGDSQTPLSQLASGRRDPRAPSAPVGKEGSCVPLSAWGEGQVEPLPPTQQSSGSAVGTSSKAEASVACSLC
T4 sequence (P35408 whole entry): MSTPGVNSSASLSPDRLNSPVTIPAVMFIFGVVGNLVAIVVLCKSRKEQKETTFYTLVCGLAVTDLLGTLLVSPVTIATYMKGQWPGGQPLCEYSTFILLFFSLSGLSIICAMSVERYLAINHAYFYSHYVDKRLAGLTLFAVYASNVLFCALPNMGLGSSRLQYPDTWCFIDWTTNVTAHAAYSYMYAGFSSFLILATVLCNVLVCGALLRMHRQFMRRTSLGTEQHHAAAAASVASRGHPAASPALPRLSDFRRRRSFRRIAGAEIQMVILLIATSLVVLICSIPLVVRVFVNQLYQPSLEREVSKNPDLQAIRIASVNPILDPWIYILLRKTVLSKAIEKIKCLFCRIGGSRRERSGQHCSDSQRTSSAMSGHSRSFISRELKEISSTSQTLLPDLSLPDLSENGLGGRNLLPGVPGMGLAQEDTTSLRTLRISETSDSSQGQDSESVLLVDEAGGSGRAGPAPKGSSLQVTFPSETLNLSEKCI

Take `Cc1cc2cc(C(=O)O)ccc2n1Cc1cc(Br)ccc1OCC(C)C` [Example 66, 1-(5-Bromo-2-Isobutoxy-Benzyl)-2-Methyl-1H-Indole-5-Carboxylic Acid]: the antagonist equilibrium constant (Kb) in assay [1] is 0.05 µM; in assay [2] it was no less than 10 µM; in assay [3], no less than 10 µM; in assay [4], 1.4 µM; in assay [5] it was 4.6 µM.
As for `CC(C)COc1ccc(Br)cc1Cn1ccc2cc(C(=O)O)ccc21` [Example 67, 1-(5-Bromo-2-Isobutoxy-Benzyl)-1H-Indole-5-Carboxylic Acid], the antagonist dissociation constant (Kb) is 0.06 µM in assay [1]; no less than 10 µM in assay [2]; no less than 10 µM in assay [3]; 0.34 µM in assay [4]; no less than 10 µM in assay [5].
Regarding `CCC(CC)COc1ccc(Br)cc1Cn1c(C)cc2cc(C(=O)O)ccc21` [Example 68, 1-[5-Bromo-2-(2-Ethyl-Butoxy)-Benzyl]-2-Methyl-1H-Indole-5-Carboxylic Acid], the antagonist dissociation constant (Kb) was no less than 10 µM in assay [1]; no less than 10 µM in assay [2]; no less than 10 µM in assay [3]; 9.7 µM in assay [4]; 6.6 µM in assay [5].
In the case of `CCC(CC)COc1ccc(Br)cc1Cn1ccc2cc(C(=O)O)ccc21` [Example 69, 1-[5-Bromo-2-(2-Ethyl-Butoxy)-Benzyl]-1H-Indole-5-Carboxylic Acid], the Kb was 0.25 µM in assay [1]; no less than 10 µM in assay [2]; 7.9 µM in assay [3]; 0.13 µM in assay [4]; 3 µM in assay [5].
On the same counts, the results for `CCC(CC)COc1ccc(Br)cc1Cn1ccc2ccc(C(=O)O)cc21` [Example 70, 1-[5-Bromo-2-(2-Ethyl-Butoxy)-Benzyl]-1H-Indole-6-Carboxylic Acid] are 0.2 µM, no less than 10 µM, no less than 10 µM, 6 µM and no less than 10 µM.
On the same counts, the results for `CC(C)COc1ccc(OC(F)(F)F)cc1Cn1ccc2cc(C(=O)O)ccc21` [Example 71, 1-(2-Isobutoxy-5-Trifluoromethoxy-Benzyl)-1H-Indole-5-Carboxylic Acid] are 0.1 µM, no less than 10 µM, no less than 10 µM, 0.28 µM and no less than 10 µM.
As for `CC(C)COc1ccc(Br)cc1Cn1ccc2cc(C(=O)O)cnc21` [Example 72, 1-(5-Bromo-2-Isobutoxy-Benzyl)-1H-Pyrrolo[2,3-B]Pyridine-5-Carboxylic Acid], the Kb in assay [1] is 0.01 µM; in assay [2], no less than 10 µM; in assay [3], no less than 10 µM; in assay [4], 0.22 µM; in assay [5], 2 µM.
On to `CC(C)COc1ccc(Br)cc1Cn1ccc2nc(C(=O)O)ccc21` [Example 73, 1-(5-Bromo-2-Isobutoxy-Benzyl)-1H-Pyrrolo[3,2-B]Pyridine-5-Carboxylic Acid], for which the Kb in assay [1] was 0.08 µM; in assay [2], no less than 10 µM; in assay [3] it was no less than 10 µM; in assay [4], no less than 10 µM; in assay [5], 9 µM.
For `CC(C)COc1ccc(OC(F)(F)F)cc1Cn1ccc2cc(C(=O)O)cnc21` [Example 74, 1-(2-Isobutoxy-5-Trifluoromethoxy-Benzyl)-1H-Pyrrolo[2,3-B]Pyridine-5-Carboxylic Acid], the antagonist dissociation constant (Kb) in assay [1] is 0.06 µM; in assay [2], no less than 10 µM; in assay [3] it was 2.8 µM; in assay [4] it was 0.44 µM; in assay [5], 1.4 µM.
On the same counts, the results for `Cc1cn(Cc2cc(OC(F)(F)F)ccc2OCC(C)C)c2ccc(C(=O)O)cc12` [Example 75, 1-(2-Isobutoxy-5-Trifluoromethoxy-Benzyl)-3-Methyl-1H-Indole-5-Carboxylic Acid] are 0.02 µM, 6.4 µM, no less than 10 µM, 0.28 µM and 4.4 µM.
With `CCC(CC)COc1ccc(OC(F)(F)F)cc1Cn1cc(C)c2cc(C(=O)O)ccc21` [Example 77, 1-[2-(2-Ethyl-Butoxy)-5-Trifluoromethoxy-Benzyl]-3-Methyl-1H-Indole-5-Carboxylic Acid], the Kb in assay [1] was 0.9 µM; in assay [2], 9.2 µM; in assay [3], no less than 10 µM; in assay [4] it was 1.5 µM; in assay [5], no less than 10 µM.
On to `CCC(CC)COc1ccc(Br)cc1Cn1cnc2cc(C(=O)O)ccc21` [Example 78, 1-[5-Bromo-2-(2-Ethyl-Butoxy)-Benzyl]-1H-Benzoimidazole-5-Carboxylic Acid], for which the antagonist equilibrium constant (Kb) in assay [1] was 0.145 µM; in assay [2], no less than 10 µM; in assay [3] it was no less than 10 µM; in assay [4], 0.035 µM; in assay [5] it was 3 µM.
Regarding `CC(C)COc1ccc(Br)cc1Cn1cnc2cc(C(=O)O)ccc21` [Example 79, 1-(5-Bromo-2-Isobutoxy-Benzyl)-1H-Benzoimidazole-5-Carboxylic Acid], the antagonist dissociation constant (Kb) in assay [1] was 0.011 µM; in assay [2], no less than 10 µM; in assay [3] it was 8.7 µM; in assay [4], 0.08 µM; in assay [5], 7 µM.
